# Like-named read-outs stand apart in the source and are kept apart here.
# What was measured:
# NCI-N87 PBDr cells = assay: Drug transporter inhibitor combination growth inhibition (MTS); format: cell-based, human; conditions: for response to ADCT-502: MK-571 (5 μM) or FTC (10 μM) for 24 hours before ADC
# Protocol: (§1) Cells were seeded at 10,000 cells per well in a flat bottom 96-well plate, and NCI-N87 cell were incubated overnight to allow for cell attachment.
# (§2) For ADC growth inhibition assays, cells were then incubated with serial dilutions of ADCT-301 or ADCT-502 in triplicate.
# (§3) Growth inhibition was measured after 96 hours in Karpas-299 cells and 144 hours in NCI-N87 cells using the CellTiter 96 AQueous One MTS Solution (Promega) and absorbance measured on a Multiskan Ascent plate reader (ThermoFisher) at 492 nm.
# (§4) Growth inhibition was calculated as a percentage of absorbance compared to an untreated control, and IC50 values were calculated using the sigmoidal, 4PL, X is log(concentration) equation in GraphPad Prism.
# (§5) For drug transporter inhibitor combination cytotox, the resistant cell lines were incubated overnight with either 5 μM MK-571 (ABCC2 inhibitor), 10 μM FTC (ABCG2 inhibitor), 5 μM Reversin-121 ([…]) overnight before carrying out the ADC or PBD growth inhibition assay as previously described.
# NCI-N87 ADCr cells = assay: as above; format: cell-based, human; conditions: for response to ADCT-502: MK-571 (5 μM) or FTC (10 μM) for 24 hours before ADC
# Protocol: as §1, §2, §3, §4, §5
# Karpas-299 PBDr cells = assay: as above; format: cell-based, human; conditions: for re-sensitisation to ADCT-301 treatment: MK-571 (5 μM) or FTC (10 μM) for 24 hours before ADC
# Protocol: (§6) The in vitro cytotoxicity assay (MTS) was carried out as previously described.
# as §1, §2, §3
# (§7) Growth inhibition was calculated as a percentage of absorbance compared to an untreated control, and IC50 values were calculated using the sigmoidal, 4PL, X is log(concentration) equation in GraphPad Prism. […]
# Karpas-299 ADCr cells = assay: as above; format: cell-based, human; conditions: for re-sensitisation to ADCT-301 treatment: MK-571 (5 μM) or FTC (10 μM) for 24 hours before ADC
# Protocol: as §6, §1, §2, §3, §7
# [1] = test system: NCI-N87 ADCr cells (ADCT-502 acquired resistant); assay: MTS in vitro cytotoxicity, 144 h continuous exposure; format: cell-based, human; conditions: for cross-resistance (MTS growth inhibition compared to the parental cell line): NCI-N87 ADCr vs parental
# Protocol: (§13) To generate a resistant population to either ADCT-502 or SG3199, human gastric cancer NCI-N87 cells (expressing HER2) were incubated with an approximate IC50 dose of the drug for 144 hours. The cells were then washed and returned to fresh medium until normal cell growth was recovered. This process was repeated until a measurable and stable loss in cytotoxic efficacy was established using the MTS assay.
# (§14) To measure the in vitro cytotoxicity with the MTS assay, cells were incubated with a 10-fold dilution range of ADCT-502 or SG3199, and incubated with continuous exposure for 144 hours (at least three cell doubling times under normal cell culture conditions). After incubation the CellTiter 960 AQueous One Solution Cell Proliferation Assay (MTS) was used to measure growth inhibition, by adding 20 μl reagent to the cells and incubating for 3-4 hours, then reading the absorbance at 492 nm. Mean % growth of the ADC or PBD treated cells was calculated relative to an untreated control.
# (§15) To measure the cross-resistance of the NCI-N87 ADCR cells to the SG3199 PBD warhead, and the PBDR cells to ADCT-502, the in vitro cytotoxicity assay was carried out as described above, treating the cells with the opposite drug molecule to the one with which they were generated.
# [2] = test system: Karpas PBDr cells (SG3199 acquired resistant Karpas-299); assay: MTS in vitro cytotoxicity, 96 h continuous exposure
# Protocol: (§8) To generate a resistant population to either ADCT-301 or SG3199, human anaplastic large cell lymphoma Karpas-299 cells (expressing CD25) were incubated with an approximate IC50 dose of the drug for 96 hours. The cells were then washed and returned to fresh medium until normal cell growth was recovered. This process was repeated until a measurable and stable loss in cytotoxic efficacy was established using the MTS assay.
# (§9) To measure the in vitro cytotoxicity with the MTS assay, cells were incubated with a 10-fold dilution range of ADCT-301 or SG3199, and incubated with continuous exposure for 96 hours (at least three cell doubling times under normal cell culture conditions). After incubation the […] AQueous One Solution Cell Proliferation Assay (MTS) was used to measure growth inhibition, by adding 20 μl reagent to the cells and incubating for 3-4 hours, then reading the absorbance at 492 nm. Mean % growth of the ADC or PBD treated cells was calculated relative to an untreated control.
# (§10) To measure the cross-resistance of the Karpas ADCR cells to the SG3199 PBD warhead, and the PBDR cells to ADCT-301, the in vitro cytotoxicity assay was carried out as described above, treating the cells with the opposite drug molecule to the one with which they were generated.
# (§11) To measure the cross-resistance of the Karpas ADCR and PBDR cells to the PBD dimer warhead SG2000, the in vitro cytotoxicity (MTS) assay was carried out as previously described in Example 2.
# [3] = test system: Karpas ADCr cells (ADCT-301 acquired resistant Karpas-299); assay: as above
# Protocol: as §8, §9, §10, §11
# NCI-N87 wt cells = assay: MTS in vitro cytotoxicity, 144 h continuous exposure; format: cell-based, human; conditions: Homo sapiens, NCI-N87, 144 h, read-out: IC50 pM
# Protocol: as §13, §14, §15
# [4] = test system: NCI-N87 PBDr cells (SG3199 acquired resistant); assay: as above; format: cell-based, human; conditions: for cross-resistance (MTS growth inhibition compared to the parental cell line): NCI-N87 PBDr vs parental
# Protocol: as §13, §14, §15
# Karpas-299 wt cells = assay: MTS in vitro cytotoxicity, 96 h continuous exposure; format: cell-based; conditions: Homo sapiens, KARPAS-299, read-out: IC50 nM
# Protocol: To measure the in vitro cytotoxicity with the MTS assay, cells were incubated with a 10-fold dilution range of ADCT-301 or SG3199, and incubated with continuous exposure for 96 hours (at least three cell doubling times under normal cell culture conditions). After incubation the CellTiter 960 AQueous One Solution Cell Proliferation Assay (MTS) was used to measure growth inhibition, by adding 20 μl reagent to the cells and incubating for 3-4 hours, then reading the absorbance at 492 nm. Mean % growth of the ADC or PBD treated cells was calculated relative to an untreated control.
# [5] = biological target: T1, CD25 on Karpas-299 ADCR cells (Homo sapiens, UniProt P01589); assay: CD25 antibody binding, flow cytometry; conditions: Karpas-299 ADCR vs wt, 1 hour on ice
# T1 construct: endogenous in cells; host or cells: Karpas-299 acquired-resistant sublines (ADCR: selected with ADCT-301; PBDR: selected with SG3199)
# T1 sequence (P01589 22-272): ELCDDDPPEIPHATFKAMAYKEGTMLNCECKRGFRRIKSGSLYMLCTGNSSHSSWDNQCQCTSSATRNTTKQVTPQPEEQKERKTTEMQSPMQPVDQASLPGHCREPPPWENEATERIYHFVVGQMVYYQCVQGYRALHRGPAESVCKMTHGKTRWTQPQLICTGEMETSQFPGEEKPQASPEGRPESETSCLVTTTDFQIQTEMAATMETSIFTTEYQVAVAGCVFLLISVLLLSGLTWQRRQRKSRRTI
# Protocol: (§12) Karpas wt and acquired resistant cells were blocked at 4° C. for 30 mins before being incubated with a serial dilution series of HuMax-TAC mAb for 1 hour on ice. The cells were then washed and incubated with a F(ab′)2-Goat anti-Human IgG Fc Secondary Antibody conjugated to Alexa Fluor 488. After incubation for 1 hour on ice in the dark the cells were washed and run on a Fortessa X20 flow cytometer, and the mean fluorescence intensity (MFI) determined using the B530/30 laser/filter. […] In NCI-N87 cell lines there was a small decrease in MFI reached by the PBDr cell line, but the ADCr cell line was unchanged compared to the parental line (data not shown). However all cells continued to express high levels of antigen.
# [6] = biological target: T2, CD25 on Karpas-299 PBDR cells (Homo sapiens, UniProt P01589); assay: CD25 antibody binding, flow cytometry; conditions: Karpas-299 PBDR vs wt, 1 hour on ice
# T2 construct: endogenous in cells; host or cells: Karpas-299 acquired-resistant sublines (ADCR: selected with ADCT-301; PBDR: selected with SG3199)
# T2 sequence (P01589 22-272): T1 sequence (P01589 22-272)
# Protocol: as §12
# [7] = Homo sapiens, NCI-N87, 144 h, read-out: IC50 pM
# [8] = Homo sapiens, KARPAS-299, read-out: IC50 nM
compound,measurement,setting,value
"COc1ccc2c3c([nH]c2c1)[C@H](C=C(C)C)N1C(=O)[C@@H]2CCCN2C(=O)[C@@H]1C3 [FTC, Fumitremorgin C]",response to ADCT-502,NCI-N87 PBDr cells,restored to the level of the parental cell line
same,response to ADCT-502,NCI-N87 ADCr cells,restored to the level of the parental cell line
same,re-sensitisation to ADCT-301 treatment,Karpas-299 PBDr cells; Karpas-299 PBDr,dramatic re-sensitisation
same,re-sensitisation to ADCT-301 treatment,Karpas-299 ADCr cells; Karpas-299 ADCr,dramatic re-sensitisation
CC[C@H](C)C(=O)O[C@H]1C[C@@H](C)C=C2C=C[C@H](C)[C@H](CC[C@@H]3C[C@@H](O)CC(=O)O3)[C@H]21 [Lovastatin],reversal of resistance by SLCO2B1 inhibitor,NCI-N87 PBDr cells; 5 μM Lovastatin with ADCT-502,failed to reverse the resistance
same,reversal of resistance by SLCO2B1 inhibitor,NCI-N87 ADCr cells; 5 μM Lovastatin with ADCT-502,failed to reverse the resistance
same,reversal of resistance by SLCO2B1 inhibitor,"Karpas-299 PBDr cells; Karpas-299 PBDr, 10 nM Lovastatin with ADCT-301",failed to reverse the resistance
same,reversal of resistance by SLCO2B1 inhibitor,"Karpas-299 ADCr cells; Karpas-299 ADCr, 10 nM Lovastatin with ADCT-301",failed to reverse the resistance
CN(C)C(=O)CCSC(SCCC(=O)[O-])c1cccc(/C=C/c2ccc3ccc(Cl)cc3n2)c1.[Na+] (stereo not drawn) [MK-571],response to ADCT-502,NCI-N87 PBDr cells,restored to the level of the parental cell line
same,response to ADCT-502,NCI-N87 ADCr cells,restored to the level of the parental cell line
same,reversal of acquired resistance to ADCT-301,"Karpas-299 PBDr cells; Karpas PBDr, 50 μM MK-571, 96-hour continuous exposure to ADCT-301",partially reverse the resistance
same,re-sensitisation to ADCT-301 treatment,Karpas-299 PBDr cells; Karpas-299 PBDr,dramatic re-sensitisation
same,reversal of acquired resistance to ADCT-301,"Karpas-299 ADCr cells; Karpas ADCr, 50 μM MK-571, 96-hour continuous exposure to ADCT-301",partially reverse the resistance
same,re-sensitisation to ADCT-301 treatment,Karpas-299 ADCr cells; Karpas-299 ADCr,dramatic re-sensitisation
C=C1C[C@H]2C=Nc3cc(OCCCOc4cc5c(cc4OC)C(=O)N4CC(=C)C[C@H]4C=N5)c(OC)cc3C(=O)N2C1 [SG2000],IC50,[1]; [7],483 pM
same,fold resistance compared to wildtype,[1]; NCI-N87 ADCr vs NCI-N87 wt IC50,7.5 fold
same,IC50,[2]; [8],4.7 nM
same,fold resistance compared to wildtype,[2]; Karpas PBDr vs Karpas wt IC50,5.2 fold
same,IC50,[3]; [8],2.8 nM
same,fold resistance compared to wildtype,[3]; Karpas ADCr vs Karpas wt IC50,3.1 fold
same,IC50,NCI-N87 wt cells,64 pM
same,IC50,[4]; [7],493 pM
same,fold resistance compared to wildtype,[4]; NCI-N87 PBDr vs NCI-N87 wt IC50,7.7 fold
same,IC50,Karpas-299 wt cells,0.9 nM
N.N.[Cl][Pt][Cl] [cisplatin],cross-resistance (MTS growth inhibition compared to the parental cell line),[1],decrease in growth inhibition
same,cross-resistance (MTS growth inhibition compared to the parental cell line),[4],decrease in growth inhibition
COc1cccc2c1C(=O)c1c(O)c3c(c(O)c1C2=O)C[C@@](O)(C(=O)CO)C[C@@H]3O[C@H]1C[C@H](N)[C@H](O)[C@H](C)O1 [doxorubicin],cross-resistance (MTS growth inhibition compared to the parental cell line),[1],decrease in growth inhibition
same,cross-resistance (MTS cytotoxic sensitivity compared to wt cells),[2],No cross-resistance
same,cross-resistance (MTS cytotoxic sensitivity compared to wt cells),[3],No cross-resistance
same,cross-resistance (MTS growth inhibition compared to the parental cell line),[4],decrease in growth inhibition
N[C@@H](Cc1ccc(N(CCCl)CCCl)cc1)C(=O)O [melphalan],cross-resistance (MTS growth inhibition compared to the parental cell line),[1],decrease in growth inhibition
same,cross-resistance (MTS cytotoxic sensitivity compared to wt cells),[2]; Karpas PBDr vs wt/parental,No cross-resistance
same,cross-resistance (MTS cytotoxic sensitivity compared to wt cells),[3]; Karpas ADCr vs wt/parental,No cross-resistance
same,cross-resistance (MTS growth inhibition compared to the parental cell line),[4],decrease in growth inhibition
"HuMax-TAC: fully human monoclonal IgG1,K antibody, VH SEQ ID NO. 1 and VL SEQ ID NO. 2; binds CD25",peak MFI of antibody binding compared to wildtype,[5],small decrease in peak MFI
same,MFI of antibody binding compared to wildtype,[6],identical to wildtype cells

# — US20220347309A1, “PYRROLOBENZODIAZEPINE RESISTANCE” (ADC THERAPEUTICS SA, priority 2018, published 2022)
